Laboratory results: patent publication US20250197374A1, “WEE1 DEGRADING COMPOUNDS AND USES THEREOF” (BRISTOL-MYERS SQUIBB COMPANY, priority 2023, published 2025)
Like-named read-outs stand apart in the source and are kept apart here.

Columns and labels:
Format in all cases: cell-based
WEE1 = target: T1, WEE1 (Homo sapiens, UniProt P30291+Q96SW2); assay: WEE1-ePL degradation assay (293T-LentiX, InCELL Hunter luminescence, 4 hr); settings: for DC50: LentiX-HEK293T cells expressing WEE1-ePL, 4 hr incubation, read-out: 293T-LentiX WEE1-ePL Degradation 4 hr EC50; for 293T-LentiX WEE1-ePL Degradation 4 hr YMin (%): lower limit of fit, % of DMSO control signal remaining
T1 construct: C-terminal ePL-tagged (DiscoverX, Fremont, CA) full-length WEE1 expression construct; expressed in transfected cells; host or cells: LentiX-HEK293T (Invitrogen), lentivirally transduced; the cells also over-express GSPT1-GN
T1 sequence (P30291 whole entry): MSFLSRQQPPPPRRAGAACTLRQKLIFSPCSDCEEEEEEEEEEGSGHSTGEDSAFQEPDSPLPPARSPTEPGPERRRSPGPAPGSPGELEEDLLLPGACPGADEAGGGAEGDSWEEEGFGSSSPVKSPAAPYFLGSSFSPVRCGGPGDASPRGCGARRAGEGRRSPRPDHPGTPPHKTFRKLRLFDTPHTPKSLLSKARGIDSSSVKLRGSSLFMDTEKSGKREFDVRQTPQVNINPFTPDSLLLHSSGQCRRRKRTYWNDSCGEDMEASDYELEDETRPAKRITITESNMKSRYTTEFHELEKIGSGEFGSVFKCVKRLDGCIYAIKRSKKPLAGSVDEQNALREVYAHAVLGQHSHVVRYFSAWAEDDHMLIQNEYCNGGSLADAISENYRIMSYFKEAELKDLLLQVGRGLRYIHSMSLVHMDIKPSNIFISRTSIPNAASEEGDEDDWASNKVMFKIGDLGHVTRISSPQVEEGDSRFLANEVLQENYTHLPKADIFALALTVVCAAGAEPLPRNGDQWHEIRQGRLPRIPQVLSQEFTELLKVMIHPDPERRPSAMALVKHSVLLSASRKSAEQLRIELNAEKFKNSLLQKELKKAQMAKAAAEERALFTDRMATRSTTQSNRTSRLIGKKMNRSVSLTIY
T1 sequence (Q96SW2 whole entry): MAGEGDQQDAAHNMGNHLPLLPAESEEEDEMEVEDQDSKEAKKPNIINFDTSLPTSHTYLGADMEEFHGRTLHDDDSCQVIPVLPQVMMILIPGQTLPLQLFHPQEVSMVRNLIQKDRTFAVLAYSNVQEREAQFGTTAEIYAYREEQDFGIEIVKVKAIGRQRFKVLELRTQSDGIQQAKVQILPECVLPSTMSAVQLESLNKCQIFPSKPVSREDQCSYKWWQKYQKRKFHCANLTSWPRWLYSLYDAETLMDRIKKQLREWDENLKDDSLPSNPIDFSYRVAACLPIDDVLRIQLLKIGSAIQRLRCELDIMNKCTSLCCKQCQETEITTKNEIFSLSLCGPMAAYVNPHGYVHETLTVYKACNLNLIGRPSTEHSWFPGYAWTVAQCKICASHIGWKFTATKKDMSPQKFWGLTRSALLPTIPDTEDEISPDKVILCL
T1 sequence (Q16531 whole entry partner): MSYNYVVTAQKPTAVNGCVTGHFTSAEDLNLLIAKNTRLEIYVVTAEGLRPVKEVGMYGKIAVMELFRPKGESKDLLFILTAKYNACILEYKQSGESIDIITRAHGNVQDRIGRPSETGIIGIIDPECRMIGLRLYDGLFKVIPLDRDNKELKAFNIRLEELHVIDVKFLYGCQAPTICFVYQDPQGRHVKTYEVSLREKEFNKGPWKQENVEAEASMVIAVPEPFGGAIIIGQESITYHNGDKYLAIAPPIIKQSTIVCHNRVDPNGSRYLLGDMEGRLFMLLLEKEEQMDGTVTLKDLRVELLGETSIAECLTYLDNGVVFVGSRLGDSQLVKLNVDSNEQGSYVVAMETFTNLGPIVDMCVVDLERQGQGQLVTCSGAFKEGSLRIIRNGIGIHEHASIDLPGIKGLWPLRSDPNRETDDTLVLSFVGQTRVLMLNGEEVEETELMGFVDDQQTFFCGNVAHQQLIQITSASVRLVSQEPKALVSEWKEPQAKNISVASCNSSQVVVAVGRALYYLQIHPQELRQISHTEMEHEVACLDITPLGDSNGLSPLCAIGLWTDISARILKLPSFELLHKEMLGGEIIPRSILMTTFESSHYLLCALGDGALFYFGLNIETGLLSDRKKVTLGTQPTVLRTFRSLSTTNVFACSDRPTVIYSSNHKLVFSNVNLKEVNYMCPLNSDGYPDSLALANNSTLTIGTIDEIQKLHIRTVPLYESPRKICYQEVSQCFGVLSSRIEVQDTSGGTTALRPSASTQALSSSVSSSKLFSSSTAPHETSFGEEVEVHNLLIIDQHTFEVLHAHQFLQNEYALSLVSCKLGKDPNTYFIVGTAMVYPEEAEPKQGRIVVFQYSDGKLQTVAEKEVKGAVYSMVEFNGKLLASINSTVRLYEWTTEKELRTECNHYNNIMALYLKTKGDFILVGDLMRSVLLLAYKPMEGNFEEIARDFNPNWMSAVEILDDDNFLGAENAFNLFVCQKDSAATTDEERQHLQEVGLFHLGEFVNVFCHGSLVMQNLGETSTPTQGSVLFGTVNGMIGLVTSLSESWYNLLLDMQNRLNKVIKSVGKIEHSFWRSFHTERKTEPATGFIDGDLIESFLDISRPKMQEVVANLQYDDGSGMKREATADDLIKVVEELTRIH
Method in brief: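 LentiX-HEK293T cells expressing C-terminally ePL-tagged full-length WEE1 plus non-degradable GSPT1-GN (G575N, N-terminal 158 aa truncated). Treated 4 h at 37 °C with a 10-point, 3-fold series from 1 or 10 µM, then read by InCELL Hunter luminescence. EC50 from four-parameter logistic fit, Ymax set by DMSO control.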

MKN45 cells = assay: MKN45 cell proliferation assay (Cell-Titer-Glo, 120 hr); settings: for EC50: Homo sapiens, MKN-45, 120 h, read-out: MKN45 Cell Prolif. 120 hr EC50; for MKN45 Cell Prolif. 120 hr YMin (%): minimal percent of DMSO control observed
Method in brief: (§1)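 MKN45 (400/well) and MDA-MB-231 (800/well) cells in RPMI with 10% FBS were exposed to 10-point half-log doses from 1 or 10 uM (0.1% DMSO) for 120 h at 37 °C. Viability was read by CellTiter-Glo luminescence. EC50 came from blank-subtracted, %DMSO four-parameter fits, with Ymin-obs as the lowest %DMSO observed.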

MDA-MB-231 cells = assay: MDA-MB-231 cell proliferation assay (Cell-Titer-Glo, 120 hr); settings: for EC50: read-out: MDA-MB 231 Cell Prolif. 120 hr EC50; for MDA-MB 231 Cell Prolif. 120 hr YMin (%): minimal percent of DMSO control observed
Method in brief: as §1

[1] = Homo sapiens, MDA-MB-231, 120 h

DC50 (WEE1)	293T-LentiX WEE1-ePL Degradation 4 hr YMin (%) (WEE1)	EC50 (MKN45 cells)	EC50 (MDA-MB-231 cells; [1])	EC50 (MDA-MB-231 cells)	Structure (SMILES)	MKN45 Cell Prolif. 120 hr YMin (%) (MKN45 cells)	MDA-MB 231 Cell Prolif. 120 hr YMin (%) (MDA-MB-231 cells)
4 nM	22.4%	33 nM	2370 nM		O=C1CC[C@H](N2Cc3cc(O[C@H]4CN(Cc5cc(F)c6nc(C7CCOCC7)ccc6c5)C[C@@H]4c4ccccc4)ccc3C2=O)C(=O)N1 (relative stereo) [Example 145, (S)-3-(5-(((3R*,4S*)-1-((8-fluoro-2-(tetrahydro-2H-pyran-4-yl)quinolin-6-yl)methyl)-4-phenylpyrrolidin-3-yl)oxy)-1-oxoisoindolin-2-yl)piperidine-2,6-dione]	16.3%	74.7%
2 nM	39.0%	35 nM	128 nM		COC[C@@H]1CN(Cc2ccc3c(ccn3C(=O)C3CCOCC3)c2)C[C@H]1Oc1ccc2c(c1)CN([C@H]1CCC(=O)NC1=O)C2=O [Example 25, (3S)-3-(5-{[(3S,4S)-4-(methoxymethyl)-1-{[1-(oxane-4-carbonyl)-1H-indol-5-yl]methyl}pyrrolidin-3-yl]oxy}-1-oxo-2,3-dihydro-1H-isoindol-2-yl)piperidine-2,6-dione]	25.4%	80.7%
1 nM	28.0%		19 nM		COC[C@@H]1CN(Cc2cc3ccc(C4CCN(CC(F)(F)F)CC4)cc3cn2)C[C@H]1Oc1ccc2c(c1)CN([C@H]1CCC(=O)NC1=O)C2=O [Example 38, (3S)-3-(5-{[(3S,4S)-4-(methoxymethyl)-1-({7-[1-(2,2,2-trifluoroethyl)piperidin-4-yl]isoquinolin-3-yl}methyl)pyrrolidin-3-yl]oxy}-1-oxo-2,3-dihydro-1H-isoindol-2-yl)piperidine-2,6-dione]	9.8%	21.6%
1 nM	28.9%	1 nM	18 nM		COC[C@@H]1CN(Cc2cc(F)c3nc(C4CCCOC4)ccc3c2)C[C@H]1Oc1ccc2c(c1)CN([C@H]1CCC(=O)NC1=O)C2=O (relative stereo) [Example 70, rel-(3S)-3-(5-{[(3S,4S)-1-{[8-fluoro-2-(oxan-3-yl)quinolin-6-yl]methyl}-4-(methoxymethyl)pyrrolidin-3-yl]oxy}-1-oxo-2,3-dihydro-1H-isoindol-2-yl)piperidine-2,6-dione]	11.9%	26.1%
1 nM	26.4%	2 nM	16 nM		COC[C@@H]1CN(Cc2ccc3nc(N4CCN(C(C)=O)C5(CC5)C4)ncc3c2)C[C@H]1Oc1ccc2c(c1)CN([C@H]1CCC(=O)NC1=O)C2=O [Example 94, (3S)-3-(5-{[(3S,4S)-1-[(2-{4-acetyl-4,7-diazaspiro[2.5]octan-7-yl}quinazolin-6-yl)methyl]-4-(methoxymethyl)pyrrolidin-3-yl]oxy}-1-oxo-2,3-dihydro-1H-isoindol-2-yl)piperidine-2,6-dione]	8.5%	16.0%
8 nM	19.5%	13 nM	134 nM		COC[C@@H]1CN(Cc2cc(F)c3nc(CC(C)(C)O)ncc3c2)C[C@H]1Oc1ccc2c(c1)CN([C@H]1CCC(=O)NC1=O)C2=O [Example 107, (3S)-3-(5-{[(3S,4S)-1-{[8-fluoro-2-(2-hydroxy-2-methylpropyl)quinazolin-6-yl]methyl}-4-(methoxymethyl)pyrrolidin-3-yl]oxy}-1-oxo-2,3-dihydro-1H-isoindol-2-yl)piperidine-2,6-dione]	10.4%	51.6%
1 nM	25.3%	1 nM	56 nM		O=C1CC[C@H](N2Cc3cc(O[C@@H]4CN(Cc5cc(F)c6ncc(N7CCOCC7)cc6c5)C[C@H]4COC(F)(F)F)ccc3C2=O)C(=O)N1 [Example 140, (3S)-3-(5-{[(3S,4S)-1-{[8-fluoro-3-(morpholin-4-yl)quinolin-6-yl]methyl}-4-[(trifluoromethoxy)methyl]pyrrolidin-3-yl]oxy}-1-oxo-2,3-dihydro-1H-isoindol-2-yl)piperidine-2,6-dione]	8.3%	24.8%
368 nM	30.7%	75 nM		1560 nM	CN1CC2(CC(c3ccc4cc(CN5CC[C@H](Oc6ccc7c(c6)CN([C@H]6CCC(=O)NC6=O)C7=O)C5)ccc4n3)CO2)C1 (single isomer, unassigned) [Example 1, (S)-3-(5-(((S)-1-((2-((R*)-2-methyl-5-oxa-2-azaspiro[3.4]octan-7-yl)quinolin-6-yl)methyl)pyrrolidin-3-yl)oxy)-1-oxoisoindolin-2-yl)piperidine-2,6-dione]	16.1%	70.9%
	81.6%	109 nM	1120 nM		COC[C@H]1CN(Cc2cc(F)c3nc(C4CCOCC4)ccc3c2)C[C@H]1Oc1ccc2c(c1)CN([C@H]1CCC(=O)NC1=O)C2=O [Example 83, (3S)-3-(5-{[(3S,4R)-1-{[8-fluoro-2-(oxan-4-yl)quinolin-6-yl]methyl}-4-(methoxymethyl)pyrrolidin-3-yl]oxy}-1-oxo-2,3-dihydro-1H-isoindol-2-yl)piperidine-2,6-dione]	94.8%	87.9%
	30.3%		11 nM		COC[C@@H]1CN(Cc2cc(F)c3nc(C4CCC(C(C)(C)O)CC4)ccc3c2)C[C@H]1Oc1ccc2c(c1)CN([C@H]1CCC(=O)NC1=O)C2=O (relative stereo) [Example 57, rel-(S)-3-(5-(((3S,4S)-1-((8-fluoro-2-(4-(2-hydroxypropan-2-yl)cyclohexyl)quinolin-6-yl)methyl)-4-(methoxymethyl)pyrrolidin-3-yl)oxy)-1-oxoisoindolin-2-yl)piperidine-2,6-dione]	8.0%	13.2%
2 nM	26.0%	10 nM	319 nM		COC[C@@H]1CN(Cc2cnc3nc(C4CCOCC4)ccc3c2)C[C@H]1Oc1ccc2c(c1)CN([C@H]1CCC(=O)NC1=O)C2=O [Example 129, (3S)-3-(5-{[(3S,4S)-4-(methoxymethyl)-1-{[7-(oxan-4-yl)-1,8-naphthyridin-3-yl]methyl}pyrrolidin-3-yl]oxy}-1-oxo-2,3-dihydro-1H-isoindol-2-yl)piperidine-2,6-dione]	10.6%	80.6%
	29.7%	1 nM	14 nM		COC[C@@H]1CN(Cc2ccc3nc(C4CCN(C5COC5)CC4)ccc3c2)C[C@H]1Oc1ccc2c(c1)CN([C@H]1CCC(=O)NC1=O)C2=O [Example 114, (3S)-3-(5-{[(3S,4S)-4-(methoxymethyl)-1-({2-[1-(oxetan-3-yl)piperidin-4-yl]quinolin-6-yl}methyl)pyrrolidin-3-yl]oxy}-1-oxo-2,3-dihydro-1H-isoindol-2-yl)piperidine-2,6-dione]	8.6%	47.4%
2 nM	20.2%	5 nM	133 nM		O=C1CC[C@H](N2Cc3cc(O[C@@H]4CN(Cc5cc(F)c6nc(C7CCOCC7)ccc6c5)C[C@H]4CO)ccc3C2=O)C(=O)N1 [Example 139, (3S)-3-(5-{[(3S,4S)-1-{[8-fluoro-2-(oxan-4-yl)quinolin-6-yl]methyl}-4-(hydroxymethyl)pyrrolidin-3-yl]oxy}-1-oxo-2,3-dihydro-1H-isoindol-2-yl)piperidine-2,6-dione]	10.3%	65.9%
1 nM	24.2%	3 nM	585 nM		O=C1CC[C@H](N2Cc3cc(O[C@H]4CN(Cc5cc(F)c6nc(C7CCOCC7)ccc6c5)C[C@@H]4C4CCCC4)ccc3C2=O)C(=O)N1 (relative stereo) [Example 146, (S)-3-(5-(((3R*,4S*)-4-Cyclopentyl-1-((8-fluoro-2-(tetrahydro-2H-pyran-4-yl)-quinolin-6-yl)methyl)pyrrolidin-3-yl)oxy)-1-oxoisoindolin-2-yl)piperidine-2,6-dione]	10.8%	50.7%
